According to US11207320B2, “Compositions and methods for cancer expressing PDE3A or SLFN12” (The Broad Institute, Inc., priority 2015, dated 2021):
Where two headings read alike, the source gives them in different places. One block for each compound: values may come before it.

Assays:
[1] = target: T1, PDE3A and SLFN12 (Homo sapiens, UniProt Q14432); assay: Validation of DNMDP-induced PDE3A protein interactions using immunoprecipitation and immunoblotting; format: cell-based; settings: for PDE3A and SLFN12 complex formation: FIG. 20, affinity reagents, immunoblot; for complex formation of V5-tagged SIRT7 and SLFN12 with PDE3A: HeLa, 10 μM, 4 hours, coimmunoprecipitation (FIG. 19)
T1 construct: Endogenous PDE3A was immunoprecipitated; host or cells: HeLa
Experimental: FIG. 19 is an immunoblot showing that DNMDP induces interaction between PDE3A and SIRT7 and SLFN12 in HeLa cells. HeLa cells were transfected with indicated plasmids and treated with indicated compounds with a final concentration of 10 μM for four hours. Endogenous PDE3A was immunoprecipitated and immunoblotted for V5 to identify novel interaction with SIRT7 and SLFN12 (upper two panels). Immunoprecipitate input was immunoblotted for PDE3A and V5 (lower two panels). V5-SLFN12 was undetectable in whole cell lysate.
FIG. 20 is an immunoblot showing confirmation of mass spectrometric results herein using affinity reagents.
HeLa cells were transfected with ORF overexpression constructs expressing V5-tagged SIRT7, V5-tagged SLFN12, or V5-tagged GFP. ORF expression constructs were obtained from the TRC (clone IDs: TRCN0000468231, TRCN0000476272, ccsbBroad304_99997). At 72 hours post transfection, cells were treated with 10 μM DNMDP or trequinsin for 4 hours followed by lysis using the ModRipa lysis buffer and immunoprecipitation of PDE3A. For each condition, 2 mg total protein lysate was incubated with 1 μg of anti-PDE3A antibody at 4° C. overnight, after which 7.5 μl each of Protein A- and Protein G-Dynabeads (Life Technologies 10001D and 10003D) were added and incubated for another 1 hour. Beads were washed and bound proteins were eluted with 30 μl of LDS PAGE gel loading buffer. Input (˜60 μg total protein lysate) and IP products were resolved on 4-12% Tris-Glycine PAGE gels and immunoblotted with an anti-V5 antibody (Life Technologies R96205, 1:5000), the Bethyl anti-PDE3A antibody (1:1000), and secondary antibodies from LiCOR Biosciences (Cat.#926-32210 and 926068021, each at 1:10,000). Blots were washed and imaged using a LiCOR Odyssey infrared imager.

[2] = target: T2, PDE10A1 (Homo sapiens, UniProt Q9Y233); assay: Phosphodiesterase inhibition reactions (Caliper panel); format: biochemical; settings: PDE10A1, 100 nM
T2 construct: Caliper
Experimental: (§1) DNMDP concentration was 100 nM.

[3] = target: T3, PDE10A2 (Homo sapiens, UniProt Q9Y233); assay: as above; format: biochemical; settings: PDE10A2, 100 nM
T3 construct: Caliper
T3 sequence (Q9Y233 267-1055, species assumed): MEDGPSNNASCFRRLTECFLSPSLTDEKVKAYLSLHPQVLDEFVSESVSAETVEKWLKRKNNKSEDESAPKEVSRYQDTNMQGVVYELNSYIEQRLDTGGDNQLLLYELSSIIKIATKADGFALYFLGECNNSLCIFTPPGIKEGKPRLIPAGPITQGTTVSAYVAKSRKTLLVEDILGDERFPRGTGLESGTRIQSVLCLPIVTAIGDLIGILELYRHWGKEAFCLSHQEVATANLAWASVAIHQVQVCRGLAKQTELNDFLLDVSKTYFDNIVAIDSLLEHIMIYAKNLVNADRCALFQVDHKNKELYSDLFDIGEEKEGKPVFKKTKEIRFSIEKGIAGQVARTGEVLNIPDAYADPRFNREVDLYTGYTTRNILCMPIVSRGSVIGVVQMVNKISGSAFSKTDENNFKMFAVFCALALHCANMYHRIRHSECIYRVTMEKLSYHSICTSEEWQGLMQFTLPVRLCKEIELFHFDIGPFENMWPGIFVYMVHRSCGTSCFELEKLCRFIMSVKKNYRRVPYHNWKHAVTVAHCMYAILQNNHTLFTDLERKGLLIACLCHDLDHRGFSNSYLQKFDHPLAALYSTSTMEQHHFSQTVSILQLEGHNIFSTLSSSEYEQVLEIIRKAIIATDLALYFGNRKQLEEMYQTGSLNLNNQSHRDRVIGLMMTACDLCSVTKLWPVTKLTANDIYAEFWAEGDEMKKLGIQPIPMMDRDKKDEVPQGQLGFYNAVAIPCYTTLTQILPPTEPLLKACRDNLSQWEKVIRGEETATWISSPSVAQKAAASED
Experimental: as §1

[4] = target: T4, PDE11A (Homo sapiens, UniProt Q9HCR9); assay: as above; format: biochemical; settings: 100 nM
T4 construct: Caliper
T4 sequence (Q9HCR9 whole entry, species assumed): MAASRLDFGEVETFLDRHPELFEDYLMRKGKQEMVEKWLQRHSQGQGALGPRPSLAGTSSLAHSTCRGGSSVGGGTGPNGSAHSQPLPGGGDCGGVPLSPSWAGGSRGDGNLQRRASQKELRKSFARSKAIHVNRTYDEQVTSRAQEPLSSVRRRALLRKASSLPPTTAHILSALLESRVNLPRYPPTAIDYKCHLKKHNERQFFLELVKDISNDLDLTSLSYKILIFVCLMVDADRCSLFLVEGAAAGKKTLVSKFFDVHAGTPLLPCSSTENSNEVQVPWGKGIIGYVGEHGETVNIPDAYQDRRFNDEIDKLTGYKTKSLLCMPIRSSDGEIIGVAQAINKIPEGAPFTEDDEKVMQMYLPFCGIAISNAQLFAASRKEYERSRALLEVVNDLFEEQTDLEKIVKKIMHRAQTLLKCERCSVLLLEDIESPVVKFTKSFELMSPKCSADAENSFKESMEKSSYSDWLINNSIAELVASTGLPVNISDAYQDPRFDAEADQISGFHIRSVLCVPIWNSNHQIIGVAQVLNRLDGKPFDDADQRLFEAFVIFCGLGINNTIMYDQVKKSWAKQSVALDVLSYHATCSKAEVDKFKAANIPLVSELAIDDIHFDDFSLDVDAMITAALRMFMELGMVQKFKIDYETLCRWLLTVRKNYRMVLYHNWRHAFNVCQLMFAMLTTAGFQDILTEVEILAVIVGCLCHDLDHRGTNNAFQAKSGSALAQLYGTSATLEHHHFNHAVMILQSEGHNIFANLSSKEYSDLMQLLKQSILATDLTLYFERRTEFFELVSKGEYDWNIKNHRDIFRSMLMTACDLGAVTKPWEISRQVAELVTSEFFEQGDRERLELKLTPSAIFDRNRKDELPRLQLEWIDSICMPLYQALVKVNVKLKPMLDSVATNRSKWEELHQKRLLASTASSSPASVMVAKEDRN
Experimental: as §1

[5] = tested on: PDE1A1; assay: as above; format: biochemical; settings: PDE1A1, 100 nM
Experimental: as §1

[6] = target: T5, PDE1B (Homo sapiens, UniProt Q01064); assay: as above; format: biochemical; settings: 100 nM
T5 construct: Caliper
Experimental: as §1

[7] = target: T6, PDE1C (Homo sapiens, UniProt Q14123); assay: as above; format: biochemical; settings: 100 nM
T6 construct: Caliper
Experimental: as §1

[8] = target: T7, PDE2A (Homo sapiens, UniProt O00408); assay: as above; format: biochemical; settings: 100 nM
T7 construct: Caliper
Experimental: as §1

[9] = target: PDE3A (Homo sapiens, UniProt Q14432); assay: as above; format: biochemical; settings: 100 nM
Experimental: as §1

[10] = target: T8, PDE4A1A (Homo sapiens, UniProt P27815); assay: as above; format: biochemical; settings: 100 nM
T8 construct: Caliper
Experimental: as §1

[11] = target: T9, PDE4B1 (Homo sapiens, UniProt Q07343); assay: as above; format: biochemical; settings: PDE4B1, 100 nM
T9 construct: Caliper
Experimental: as §1

[12] = target: T10, PDE4C1 (Homo sapiens, UniProt Q08493); assay: as above; format: biochemical; settings: PDE4C1, 100 nM
T10 construct: Caliper
T10 sequence (Q08493 whole entry, species assumed): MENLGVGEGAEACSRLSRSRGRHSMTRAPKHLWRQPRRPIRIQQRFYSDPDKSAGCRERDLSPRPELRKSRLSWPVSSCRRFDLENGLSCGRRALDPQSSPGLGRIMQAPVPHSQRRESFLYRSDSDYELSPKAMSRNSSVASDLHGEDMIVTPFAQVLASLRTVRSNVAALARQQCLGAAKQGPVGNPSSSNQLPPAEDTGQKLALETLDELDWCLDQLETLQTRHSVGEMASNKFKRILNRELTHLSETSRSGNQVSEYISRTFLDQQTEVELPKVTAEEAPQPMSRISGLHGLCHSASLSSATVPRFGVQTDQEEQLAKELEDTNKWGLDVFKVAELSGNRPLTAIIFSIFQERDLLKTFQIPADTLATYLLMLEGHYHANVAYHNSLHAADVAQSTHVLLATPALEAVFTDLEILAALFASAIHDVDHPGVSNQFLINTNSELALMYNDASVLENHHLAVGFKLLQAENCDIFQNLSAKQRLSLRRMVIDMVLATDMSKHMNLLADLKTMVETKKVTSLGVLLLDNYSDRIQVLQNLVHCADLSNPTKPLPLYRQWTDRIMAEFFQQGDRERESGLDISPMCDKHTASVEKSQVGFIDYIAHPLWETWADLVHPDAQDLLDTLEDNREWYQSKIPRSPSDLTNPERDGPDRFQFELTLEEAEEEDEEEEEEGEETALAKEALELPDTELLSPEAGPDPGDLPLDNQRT
Experimental: as §1

[13] = target: T11, PDE4D3 (Homo sapiens, UniProt Q08499); assay: as above; format: biochemical; settings: PDE4D3, 100 nM
T11 construct: Caliper
T11 sequence (Q08499 1-673 isoform Q08499-2): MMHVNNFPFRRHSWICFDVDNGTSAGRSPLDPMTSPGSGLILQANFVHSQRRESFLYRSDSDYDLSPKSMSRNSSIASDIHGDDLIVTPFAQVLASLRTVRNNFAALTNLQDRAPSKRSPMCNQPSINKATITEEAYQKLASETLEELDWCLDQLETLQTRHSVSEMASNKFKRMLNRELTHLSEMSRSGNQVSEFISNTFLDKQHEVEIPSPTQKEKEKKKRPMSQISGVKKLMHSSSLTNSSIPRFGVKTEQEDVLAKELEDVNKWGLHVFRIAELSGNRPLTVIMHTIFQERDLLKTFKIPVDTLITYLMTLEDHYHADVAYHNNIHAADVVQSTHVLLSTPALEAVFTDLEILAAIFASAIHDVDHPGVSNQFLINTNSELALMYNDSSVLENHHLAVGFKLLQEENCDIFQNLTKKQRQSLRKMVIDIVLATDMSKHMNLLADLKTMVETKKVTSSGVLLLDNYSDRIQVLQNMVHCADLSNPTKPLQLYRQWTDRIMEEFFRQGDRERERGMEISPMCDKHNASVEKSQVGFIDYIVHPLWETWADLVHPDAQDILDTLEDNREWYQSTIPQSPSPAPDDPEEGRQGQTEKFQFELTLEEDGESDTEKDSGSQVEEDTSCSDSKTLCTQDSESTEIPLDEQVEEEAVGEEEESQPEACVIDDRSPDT
Experimental: as §1

[14] = target: T12, PDE4D7 (Homo sapiens, UniProt Q08499); assay: as above; format: biochemical; settings: PDE4D7, 100 nM
T12 construct: Caliper
T12 sequence (Q08499 1-748 isoform Q08499-11, species assumed): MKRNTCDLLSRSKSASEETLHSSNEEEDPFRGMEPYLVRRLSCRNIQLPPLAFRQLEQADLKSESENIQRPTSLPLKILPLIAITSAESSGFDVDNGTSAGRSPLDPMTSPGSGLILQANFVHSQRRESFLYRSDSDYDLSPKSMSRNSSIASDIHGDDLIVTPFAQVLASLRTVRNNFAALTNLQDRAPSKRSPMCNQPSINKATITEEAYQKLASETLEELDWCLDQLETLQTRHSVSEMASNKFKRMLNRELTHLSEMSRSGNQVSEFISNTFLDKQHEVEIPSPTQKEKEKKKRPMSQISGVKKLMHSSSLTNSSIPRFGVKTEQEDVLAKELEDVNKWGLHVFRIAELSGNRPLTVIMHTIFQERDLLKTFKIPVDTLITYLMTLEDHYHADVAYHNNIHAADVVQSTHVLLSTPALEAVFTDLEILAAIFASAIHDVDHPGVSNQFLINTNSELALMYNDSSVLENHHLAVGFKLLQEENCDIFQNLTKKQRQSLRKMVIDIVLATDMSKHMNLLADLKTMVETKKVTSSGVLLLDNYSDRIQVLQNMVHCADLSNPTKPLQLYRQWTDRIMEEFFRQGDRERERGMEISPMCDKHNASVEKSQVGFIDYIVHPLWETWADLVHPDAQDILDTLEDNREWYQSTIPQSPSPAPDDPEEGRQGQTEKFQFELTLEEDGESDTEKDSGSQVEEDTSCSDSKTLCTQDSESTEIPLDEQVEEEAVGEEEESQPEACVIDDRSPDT
Experimental: as §1

[15] = target: T13, PDE5A1 (Homo sapiens, UniProt O76074); assay: as above; format: biochemical; settings: PDE5A1, 100 nM
T13 construct: Caliper
Experimental: as §1

[16] = target: T14, PDE7A (Homo sapiens, UniProt Q13946); assay: as above; format: biochemical; settings: 100 nM
T14 construct: Caliper
Experimental: as §1

[17] = target: T15, PDE7B (Homo sapiens, UniProt Q9NP56); assay: as above; format: biochemical; settings: 100 nM
T15 construct: Caliper
Experimental: as §1

[18] = target: T16, PDE8A1 (Homo sapiens, UniProt O60658); assay: as above; format: biochemical; settings: PDE8A1, 100 nM
T16 construct: Caliper
T16 sequence (O60658 whole entry, species assumed): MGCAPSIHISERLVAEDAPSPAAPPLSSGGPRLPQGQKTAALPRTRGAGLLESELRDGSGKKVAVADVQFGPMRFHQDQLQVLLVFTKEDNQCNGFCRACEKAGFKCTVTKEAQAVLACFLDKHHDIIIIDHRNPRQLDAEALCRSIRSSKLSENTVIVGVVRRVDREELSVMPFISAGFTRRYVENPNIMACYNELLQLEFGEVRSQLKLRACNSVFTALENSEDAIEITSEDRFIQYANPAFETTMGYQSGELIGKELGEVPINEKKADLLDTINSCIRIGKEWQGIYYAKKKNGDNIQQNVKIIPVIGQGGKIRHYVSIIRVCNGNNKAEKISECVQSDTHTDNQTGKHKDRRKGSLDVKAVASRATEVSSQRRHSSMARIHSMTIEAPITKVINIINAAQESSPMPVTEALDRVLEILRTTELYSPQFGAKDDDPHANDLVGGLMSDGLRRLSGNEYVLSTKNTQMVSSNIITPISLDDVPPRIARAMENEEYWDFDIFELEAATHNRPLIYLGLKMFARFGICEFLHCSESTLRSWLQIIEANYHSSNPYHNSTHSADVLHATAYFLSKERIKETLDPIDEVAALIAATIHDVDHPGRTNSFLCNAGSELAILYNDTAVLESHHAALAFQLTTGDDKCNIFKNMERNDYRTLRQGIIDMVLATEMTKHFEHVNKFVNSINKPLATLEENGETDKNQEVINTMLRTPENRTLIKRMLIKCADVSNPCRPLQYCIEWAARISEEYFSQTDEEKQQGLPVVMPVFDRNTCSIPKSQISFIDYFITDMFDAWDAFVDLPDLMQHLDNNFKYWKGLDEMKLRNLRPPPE
Experimental: as §1

[19] = target: T17, PDE9A2 (Homo sapiens, UniProt O76083); assay: as above; format: biochemical; settings: PDE9A2, 100 nM
T17 construct: Caliper
Experimental: as §1

[20] = replicate #1, read-out: % inh. #1
[21] = replicate #2, read-out: % inh. #2

PDE3A and SLFN12 complex formation [1]: not | complex formation of V5-tagged SIRT7 and SLFN12 with PDE3A [1]: not
SMILES: COc1cc2c(cc1OC)-c1c/c(=N\c3c(C)cc(C)cc3C)n(C)c(=O)n1CC2 [trequinsin, 9,10-dimethoxy-3-methyl-2-(2,4,6-trimethylphenyl)imino-6,7-dihydropyrimido[6,1-a]isoquinolin-4-one]

inhibition at 0.1 µM [2, 20]: 61% | inhibition at 0.1 µM [2, 21]: 65% | inhibition at 0.1 µM ([2]; read-out: % inhibition): 63% | inhibition at 0.1 µM [3, 20]: 67% | inhibition at 0.1 µM [3, 21]: 70% | inhibition at 0.1 µM ([3]; read-out: % inhibition): 68% | inhibition at 0.1 µM ([4]; read-out: % inhibition): 16% | inhibition at 0.1 µM [4, 20]: 14% | inhibition at 0.1 µM [4, 21]: 18% | % inhibition [5]: 5% | % inh. #1 ([5]; replicate #1): 3% | % inh. #2 ([5]; replicate #2): 7% | inhibition at 0.1 µM ([6]; read-out: % inhibition): -2% | inhibition at 0.1 µM [6, 20]: -5% | inhibition at 0.1 µM [6, 21]: 0% | inhibition at 0.1 µM ([7]; read-out: % inhibition): 5% | inhibition at 0.1 µM [7, 20]: 2% | inhibition at 0.1 µM [7, 21]: 9% | inhibition at 0.1 µM ([8]; read-out: % inhibition): 8% | inhibition at 0.1 µM [8, 20]: 6% | inhibition at 0.1 µM [8, 21]: 10% | inhibition at 0.1 µM ([9]; read-out: % inhibition): 95% | inhibition at 0.1 µM [9, 20]: 95% | inhibition at 0.1 µM [9, 21]: 95% | inhibition at 0.1 µM ([10]; read-out: % inhibition): 16% | inhibition at 0.1 µM [10, 20]: 14% | inhibition at 0.1 µM [10, 21]: 18% | inhibition at 0.1 µM [11, 20]: 21% | inhibition at 0.1 µM [11, 21]: 20% | inhibition at 0.1 µM ([11]; read-out: % inhibition): 21% | inhibition at 0.1 µM [12, 20]: 10% | inhibition at 0.1 µM [12, 21]: 14% | inhibition at 0.1 µM ([12]; read-out: % inhibition): 12% | inhibition at 0.1 µM [13, 20]: 14% | inhibition at 0.1 µM [13, 21]: 16% | inhibition at 0.1 µM ([13]; read-out: % inhibition): 15% | inhibition at 0.1 µM [14, 20]: 19% | inhibition at 0.1 µM [14, 21]: 20% | inhibition at 0.1 µM ([14]; read-out: % inhibition): 20% | inhibition at 0.1 µM [15, 20]: 16% | inhibition at 0.1 µM [15, 21]: 16% | inhibition at 0.1 µM ([15]; read-out: % inhibition): 16% | inhibition at 0.1 µM ([16]; read-out: % inhibition): 22% | inhibition at 0.1 µM [16, 20]: 24% | inhibition at 0.1 µM [16, 21]: 20% | inhibition at 0.1 µM ([17]; read-out: % inhibition): 8% | inhibition at 0.1 µM [17, 20]: 5% | inhibition at 0.1 µM [17, 21]: 11% | inhibition at 0.1 µM [18, 20]: 10% | inhibition at 0.1 µM [18, 21]: 12% | inhibition at 0.1 µM ([18]; read-out: % inhibition): 11% | inhibition at 0.1 µM [19, 20]: 0% | inhibition at 0.1 µM [19, 21]: 5% | inhibition at 0.1 µM ([19]; read-out: % inhibition): 2% | PDE3A and SLFN12 complex formation [1]: induced | complex formation of V5-tagged SIRT7 and SLFN12 with PDE3A [1]: enhanced
SMILES: CCN(CC)c1ccc(C2=NNC(=O)CC2C)cc1[N+](=O)[O-] (stereo not shown) [DNMDP, 6-(4-(diethylamino)-3-nitrophenyl)-5-methyl-4,5-dihydropyridazin-3(2H)-one]
